Experimental data: patent EP3597653A1, “CYCLIC INHIBITORS OF HEPATITIS B VIRUS” (IRBM S.P.A., priority 2018, dated 2020)

Each compound was assayed on HBV (assay: HBV inhibition assay in HepAD38 cells (extracellular HBV DNA by direct qPCR)). Conditions: Hepatitis B virus, compound at 1 µM, 96 hours, relative to non-treated reference, read-out: Anti HBV Activity (conc µM).
Assay type: cell-based
How it was run: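 HepAD38 cells (HepG2, tetracycline-off HBV) induced in tetracycline-free medium, treated 96 h at 37 °C with compound, 0.5% DMSO. Extracellular HBV DNA quantified by direct SYBR qPCR of lysed supernatant, as % of untreated; EC50 from 8-point 1:2 curves; cytotoxicity by CellTiter-Blue.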
O=C(Nc1cc(F)c(F)c(F)c1)c1ccc2c(c1)S(=O)(=O)Nc1ncnn1-2 [Example E138, N-(3,4,5-trifluorophenyl)-4H-benzo[e][1,2,4]triazolo[5,1-c][1,2,4]thiadiazine-7-carboxamide 5,5-dioxide] was tested, and the inhibition at 1 µM was < 50%.
With O=C(Nc1cc(F)c(F)c(F)c1)c1ccc2c(c1)S(=O)(=O)NCC(CO)O2 (stereo not drawn) [Example E139, 4-(hydroxymethyl)-N-(3,4,5-trifluorophenyl)-3,4-dihydro-2H-benzo[b][1,4,5]oxathiazepine-8-carboxamide 1,1-dioxide] the inhibition at 1 µM was < 50%.
For O=C(Nc1cc(F)c(F)c(F)c1)c1ccc2c(c1)S(=O)(=O)NC1(COC1)CO2 [Example E140, N-(3,4,5-trifluorophenyl)-2H,4H-spiro[benzo[b][1,4,5]oxathiazepine-3,3'-oxetane]-8-carboxamide 1,1-dioxide], the inhibition at 1 µM was < 50%.
